Broadly, the MIC is the least concentration at which growth counts as inhibited. The MIC99 is an inhibitory concentration at the 99% level, which refers to growth in some studies and to a panel of isolates in others.

The source of these data is ChEMBL document CHEMBL3045500, “Antituberculosis and antibacterial evaluations of some novel phenyl pyrazolone-substituted 1h-benzo[g]pyrazolo[3,4-b]quinoline-3-ylamine derivatives” (2012).

The test system of experiment [1] is Pseudomonas aeruginosa. Kind of experiment: Antimicrobial activity against Pseudomonas aeruginosa MTCC 741 after 24 hr by disk diffusion method. The experiment is classed as functional. Particulars: for MIC: Pseudomonas aeruginosa, MTCC 741, 24 h. On the technique in general: A growth-free zone around the sample is the usual read-out of agar diffusion tests.
Experiment [2] has as its system Bacillus subtilis. Kind of experiment: Antimicrobial activity against Bacillus subtilis MTCC 619 after 24 hr by disk diffusion method. The following applies: for MIC: Bacillus subtilis, MTCC 619, 24 h. Format: functional.
The test system of experiment [3] is Mycobacterium tuberculosis. Kind of experiment: Antimicrobial activity against Mycobacterium tuberculosis H37Rv after 10 days by BACTEC MGIT method. The experiment is classed as functional. The following applies: 240 h.
The subject of experiment [4] is Escherichia coli. Kind of experiment: Antimicrobial activity against Escherichia coli MTCC 739 after 24 hr by disk diffusion method. The experiment is classed as functional. The following applies: for MIC: Escherichia coli, MTCC 739, 24 h.
In experiment [5] the test system is Staphylococcus aureus. Kind of experiment: Antimicrobial activity against Staphylococcus aureus MTCC 96 after 24 hr by disk diffusion method. Format: functional. Particulars: for MIC: Staphylococcus aureus, MTCC 96, 24 h.
In experiment [6] the test system is Staphylococcus aureus. Kind of experiment: Antimicrobial activity against Staphylococcus aureus MTCC 96 at 100 ug/disc after 24 hr by disk diffusion method. Particulars: MTCC 96, 24 h, read-out: IZ.
For experiment [7], the system named is Pseudomonas aeruginosa. Kind of experiment: microbe, parasite or virus in culture. Particulars: MTCC 741, 24 h, read-out: IZ.
Description: Antimicrobial activity against Pseudomonas aeruginosa MTCC 741 at 100 ug/disk after 24 hr by disk diffusion method
Experiment [8] has as its system Escherichia coli. Kind of experiment: microbe, parasite or virus in culture. The following applies: MTCC 739, 24 h, read-out: IZ.
Description: Antimicrobial activity against Escherichia coli MTCC 739 at 100 ug/disk after 24 hr by disk diffusion method
Experiment [9] relates to Bacillus subtilis. Kind of experiment: microbe, parasite or virus in culture. Particulars: MTCC 619, 24 h, read-out: IZ.
Description: Antimicrobial activity against Bacillus subtilis MTCC 619 at 100 ug/disk after 24 hr by disk diffusion method

Values after ≈ are worked out from the molar mass of the structure shown.

As for `CC1=NN(c2cccc(S(=O)(=O)O)c2)C(=O)C1/N=N/c1n[nH]c2nc3cc4ccccc4cc3cc12` (centres undefined), the “inhibition zone (IZ)” value with Pseudomonas aeruginosa [1] was less than 10 mm; in the experiment on Bacillus subtilis [2], 12 mm; with Escherichia coli [4], 10 mm; with Staphylococcus aureus [5], 11 mm. The MIC against Pseudomonas aeruginosa [1], with Bacillus subtilis [2], against Escherichia coli [4] and against Staphylococcus aureus [5] was 100 µg/mL (≈ 200 µM) throughout. Besides, the MIC99 in experiment [3] was 500 µg/mL (≈ 1000 µM).

Consider `CC1=NN(c2cc(S(=O)(=O)O)ccc2Cl)C(=O)C1/N=N/c1n[nH]c2nc3cc4ccccc4cc3cc12` (centres undefined), for which the “inhibition zone (IZ)” value with Pseudomonas aeruginosa [1] came out at 14 mm; in the experiment on Bacillus subtilis [2] it was 14 mm; in the experiment on Escherichia coli [4], 18 mm; in the experiment with Staphylococcus aureus [5], 18 mm. Moreover, the MIC in the experiment with Pseudomonas aeruginosa [1] was 100 µg/mL (≈ 187 µM); with Bacillus subtilis [2], 50 µg/mL (≈ 93.6 µM); in the experiment with Escherichia coli [4], 100 µg/mL (≈ 187 µM); against Staphylococcus aureus [5], 50 µg/mL (≈ 93.6 µM). The MIC99 in experiment [3] amounted to 1000 µg/mL (≈ 1870 µM).

Consider `CC1=NN(c2cc(Cl)ccc2Cl)C(=O)C1/N=N/c1n[nH]c2nc3cc4ccccc4cc3cc12` (centres undefined), for which the “inhibition zone (IZ)” value was 18 mm with Pseudomonas aeruginosa [1], 24 mm with Bacillus subtilis [2], 19 mm with Escherichia coli [4] and 22 mm in the experiment with Staphylococcus aureus [5]. Further, the minimum inhibitory concentration (MIC) against Pseudomonas aeruginosa [1] was determined as 50 µg/mL (≈ 102 µM); against Bacillus subtilis [2], 20 µg/mL (≈ 41 µM); against Escherichia coli [4], 50 µg/mL (≈ 102 µM); against Staphylococcus aureus [5], 20 µg/mL (≈ 41 µM). Moreover, the MIC99 in [3] came to 62.5 µg/mL (≈ 128 µM).

With `CC1=NN(c2ccccc2Cl)C(=O)C1/N=N/c1n[nH]c2nc3cc4ccccc4cc3cc12` (centres undefined), the “inhibition zone (IZ)” value in the experiment with Pseudomonas aeruginosa [1], in the experiment with Bacillus subtilis [2], with Escherichia coli [4] and with Staphylococcus aureus [5] was 16 mm in each case. Besides, the MIC against Pseudomonas aeruginosa [1], with Bacillus subtilis [2], with Escherichia coli [4] and in the experiment with Staphylococcus aureus [5] was 50 µg/mL (≈ 110 µM) in each case. In [3], the MIC99 turned out to be 250 µg/mL (≈ 551 µM).

Turning to `CC1=NN(c2cccc(Cl)c2)C(=O)C1/N=N/c1n[nH]c2nc3cc4ccccc4cc3cc12` (centres undefined), the “inhibition zone (IZ)” value in the experiment on Pseudomonas aeruginosa [1] was 15 mm; in the experiment with Bacillus subtilis [2] it was 18 mm; in the experiment on Escherichia coli [4] it was 17 mm; in the experiment with Staphylococcus aureus [5], 16 mm. In addition, the minimum inhibitory concentration (MIC) in the experiment with Pseudomonas aeruginosa [1], with Bacillus subtilis [2], in the experiment on Escherichia coli [4] and in the experiment with Staphylococcus aureus [5] was 50 µg/mL (≈ 110 µM) each time. The same molecule registered an MIC99 in [3] of 250 µg/mL (≈ 551 µM).

For `CC1=NN(c2ccc(Cl)c(Cl)c2)C(=O)C1/N=N/c1n[nH]c2nc3cc4ccccc4cc3cc12` (centres undefined), the “inhibition zone (IZ)” value in the experiment on Pseudomonas aeruginosa [1] is 21 mm; with Bacillus subtilis [2], 24 mm; in the experiment with Escherichia coli [4], 20 mm; in the experiment on Staphylococcus aureus [5], 20 mm. For the same molecule, the MIC with Pseudomonas aeruginosa [1] came to 50 µg/mL (≈ 102 µM); in the experiment with Bacillus subtilis [2], 20 µg/mL (≈ 41 µM); with Escherichia coli [4], 50 µg/mL (≈ 102 µM); against Staphylococcus aureus [5] it was 20 µg/mL (≈ 41 µM). This molecule also had an MIC99 in experiment [3] of 62.5 µg/mL (≈ 128 µM).

As to `CC1=NN(c2ccc(S(=O)(=O)O)cc2C)C(=O)C1/N=N/c1n[nH]c2nc3cc4ccccc4cc3cc12` (centres undefined), the “inhibition zone (IZ)” value turned out to be 11 mm in the experiment on Pseudomonas aeruginosa [1], 11 mm in the experiment on Bacillus subtilis [2], 12 mm in the experiment on Escherichia coli [4] and 12 mm with Staphylococcus aureus [5]. In addition, the MIC in the experiment on Pseudomonas aeruginosa [1], in the experiment on Bacillus subtilis [2], in the experiment on Escherichia coli [4] and in the experiment with Staphylococcus aureus [5] was 100 µg/mL (≈ 195 µM) each time. Besides, in experiment [3], the MIC99 amounted to 500 µg/mL (≈ 974 µM).

For `CC1=NN(c2ccc(S(=O)(=O)O)cc2)C(=O)C1/N=N/c1n[nH]c2nc3cc4ccccc4cc3cc12` (centres undefined), the “inhibition zone (IZ)” value in the experiment on Pseudomonas aeruginosa [1] is less than 10 mm; in the experiment with Bacillus subtilis [2], 12 mm; in the experiment with Escherichia coli [4], 10 mm; with Staphylococcus aureus [5], 14 mm. Moreover, the MIC in the experiment with Pseudomonas aeruginosa [1], with Bacillus subtilis [2], with Escherichia coli [4] and in the experiment on Staphylococcus aureus [5] was 100 µg/mL (≈ 200 µM) in each case. In addition, the MIC99 in experiment [3] is 1000 µg/mL (≈ 2000 µM).

Take `CC1=NN(c2cc(Cl)c(S(=O)(=O)O)cc2Cl)C(=O)C1/N=N/c1n[nH]c2nc3cc4ccccc4cc3cc12` (centres undefined): the “inhibition zone (IZ)” value came out at 15 mm in the experiment on Pseudomonas aeruginosa [1], 20 mm in the experiment with Bacillus subtilis [2], 16 mm with Escherichia coli [4] and 18 mm with Staphylococcus aureus [5]. The MIC against Pseudomonas aeruginosa [1] came to 100 µg/mL (≈ 176 µM); against Bacillus subtilis [2] it was 50 µg/mL (≈ 88 µM); against Escherichia coli [4], 100 µg/mL (≈ 176 µM); against Staphylococcus aureus [5], 50 µg/mL (≈ 88 µM). The molecule also displayed an MIC99 in experiment [3] of 500 µg/mL (≈ 880 µM).

With `CC1=NN(c2ccc(C)cc2)C(=O)C1/N=N/c1n[nH]c2nc3cc4ccccc4cc3cc12` (centres undefined), the “inhibition zone (IZ)” value in the experiment on Pseudomonas aeruginosa [1] is 14 mm; in the experiment on Bacillus subtilis [2], 16 mm; in the experiment with Escherichia coli [4], 12 mm; with Staphylococcus aureus [5], 14 mm. The MIC was found to be 100 µg/mL (≈ 231 µM) in the experiment on Pseudomonas aeruginosa [1], 50 µg/mL (≈ 115 µM) against Bacillus subtilis [2], 100 µg/mL (≈ 231 µM) in the experiment with Escherichia coli [4] and 50 µg/mL (≈ 115 µM) in the experiment with Staphylococcus aureus [5]. In [3], this molecule showed an MIC99 of 125 µg/mL (≈ 288 µM).

Take `O=C(O)c1cn(C2CC2)c2cc(N3CCNCC3)c(F)cc2c1=O` [CIPROFLOXACIN]: the MIC with Pseudomonas aeruginosa [1], in the experiment on Bacillus subtilis [2], with Escherichia coli [4] and with Staphylococcus aureus [5] was no more than 1 µg/mL throughout. In addition, the zone of inhibition at 100 µg/disc was 32 mm in the experiment on Staphylococcus aureus [6], 31 mm in the experiment with Pseudomonas aeruginosa [7], 30 mm with Escherichia coli [8] and 33 mm in the experiment on Bacillus subtilis [9].

With `NNC(=O)c1ccncc1` [ISONIAZID], the MIC99 in [3] amounted to 0.2 µg/mL (≈ 1.46 µM).
